# Test results published in ChEMBL document CHEMBL1150051, “Antiviral (RNA) activity of selected Amaryllidaceae isoquinoline constituents and synthesis of related substances” (J Nat Prod, 1992).
# Active and inactive are the calls of the source. The calls are words filed in the database; no cut-off is given here.
# Experiments:
# Mus musculus [1] = test: Toxicity in C57BL/6 mouse assessed as body weight loss at 40 mg/kg/day, sc once daily for 7 days; assay type: organism-based; parameters: route subcutaneous; details: in vivo, 168 h
# [2] = tested on: Japanese encephalitis virus; test: Antiviral activity against Japanese encephalitis virus Beijing infected in low viral dose challenge C57BL/6 mouse model assessed as average day of death at 40 mg/kg/day, sc once daily for 7 days administered 1 day before infection measured after 28 days post infection; assay type: functional; details: route subcutaneous
# [3] = tested on: Japanese encephalitis virus; test: Antiviral activity against Japanese encephalitis virus Beijing infected in low viral dose challenge C57BL/6 mouse model assessed as average day of death at 20 mg/kg/day, sc once daily for 7 days administered 1 day before infection measured after 28 days post infection; assay type: functional; details: route subcutaneous
# [4] = tested on: Japanese encephalitis virus; test: Antiviral activity against Japanese encephalitis virus Beijing infected in low viral dose challenge C57BL/6 mouse model assessed as average day of death at 10 mg/kg/day, sc once daily for 7 days administered 1 day before infection measured after 28 days post infection; assay type: functional; details: route subcutaneous
# [5] = tested on: Japanese encephalitis virus; test: Antiviral activity against Japanese encephalitis virus Beijing infected in low viral dose challenge C57BL/6 mouse model assessed as survival rate at 40 mg/kg/day, sc once daily for 7 days administered 1 day before infection measured after 28 days post infection relative to control; assay type: functional; details: route subcutaneous
# [6] = tested on: Japanese encephalitis virus; test: Antiviral activity against Japanese encephalitis virus Beijing infected in low viral dose challenge C57BL/6 mouse model assessed as survival rate at 20 mg/kg/day, sc once daily for 7 days administered 1 day before infection measured after 28 days post infection relative to control; assay type: functional; details: route subcutaneous
# [7] = tested on: Japanese encephalitis virus; test: Antiviral activity against Japanese encephalitis virus Beijing infected in low viral dose challenge C57BL/6 mouse model assessed as survival rate at 10 mg/kg/day, sc once daily for 7 days administered 1 day before infection measured after 28 days post infection relative to control; assay type: functional, organism-based
# [8] = tested on: Japanese encephalitis virus; test: Antiviral activity against Japanese encephalitis virus Nakayama infected in african green monkey Vero cells assessed as inhibition of virus-induced cytopathic effect by MTT assay; assay type: functional, organism-based
# [9] = Therapeutic index, ratio of TC50 for african green monkey Vero cells to IC50 for Japanese encephalitis virus Nakayama; assay type: cell-based; details: read-out: TI
# Yellow fever virus = test: Antiviral activity against Yellow fever virus Ashibi infected in african green monkey Vero cells assessed as inhibition of virus-induced cytopathic effect by MTT assay; assay type: functional, organism-based; details: Yellow fever virus, Ashibi, Vero; read-out: IC50
# [10] = Therapeutic index, ratio of TC50 for african green monkey Vero cells to IC50 for Yellow fever virus Ashibi; assay type: cell-based; details: read-out: TI
# dengue virus type 4 = test: Antiviral activity against Dengue virus type 4 infected in african green monkey Vero cells after 6 days by plaque reduction assay; assay type: functional, organism-based; details: Dengue virus, Vero, 144 h; read-out: IC50
# [11] = Therapeutic index, ratio of TC50 for african green monkey Vero cells to IC50 for Dengue type 4 virus; assay type: cell-based; details: read-out: TI
# [12] = tested on: Venezuelan equine encephalitis virus; test: Antiviral activity against Venezuelan equine encephalitis virus Trinidad donkey infected in african green monkey Vero cells assessed as inhibition of virus-induced cytopathic effect by MTT assay; assay type: functional, organism-based
# [13] = tested on: Human immunodeficiency virus 1; test: Antiviral activity against HIV1 by cells based assay; assay type: functional, organism-based
# Vaccinia virus = test: Antiviral activity against Vaccinia virus Lederle vaccine infected in african green monkey Vero cells assessed as inhibition of virus-induced cytopathic effect by MTT assay; assay type: functional, organism-based; details: Orthopoxvirus vaccinia
# Punta Toro virus = test: Antiviral activity against Punta Toro virus Adames infected in african green monkey Vero cells assessed as inhibition of virus-induced cytopathic effect by MTT assay; assay type: functional, organism-based; details: Punta Toro virus, Adames, Vero; read-out: IC50
# [14] = Therapeutic index, ratio of TC50 for african green monkey Vero cells to IC50 for Punta toro virus Adames; assay type: cell-based; details: read-out: TI
# Rift Valley fever virus = test: Antiviral activity against Rift Valley fever virus infected in african green monkey Vero cells after 6 days by plaque reduction assay; assay type: functional, organism-based
# [15] = Therapeutic index, ratio of TC50 for african green monkey Vero cells to IC50 for Rift valley fever virus; assay type: cell-based; details: read-out: TI
# [16] = tested on: Sandfly fever Sicilian virus; test: Antiviral activity against Sandfly fever sicilian virus infected in african green monkey Vero cells assessed as inhibition of virus-induced cytopathic effect by MTT assay; assay type: functional, organism-based
# [17] = Therapeutic index, ratio of TC50 for african green monkey Vero cells to IC50 for Sandfly fever sicilian virus; assay type: cell-based; details: read-out: TI
# Mus musculus [18] = test: Toxicity in C57BL/6 mouse assessed as average day of death at 2 mg/kg/day, sc once daily for 7 days; assay type: organism-based; parameters: route subcutaneous; details: in vivo, 168 h
# Mus musculus [19] = test: Toxicity in C57BL/6 mouse assessed as mortality at 40 mg/kg/day, sc once daily for 7 days; assay type: organism-based; parameters: route subcutaneous; details: in vivo, 168 h
# Mus musculus [20] = test: Toxicity in C57BL/6 mouse assessed as mortality at 20 mg/kg/day, sc once daily for 7 days; assay type: organism-based; parameters: route subcutaneous; details: in vivo, 168 h
# Mus musculus [21] = test: Toxicity in C57BL/6 mouse assessed as mortality at 10 mg/kg/day, sc once daily for 7 days; assay type: organism-based; parameters: route subcutaneous; details: in vivo, 168 h
# [22] = Japanese encephalitis virus, Nakayama, Vero, read-out: IC50
# [23] = Rift Valley fever virus, Vero, 144 h, read-out: IC50
# [24] = sandfly fever Sicilian virus, Vero, read-out: IC50
SMILES,"IC50 [8, 22] [µg/mL]",selectivity ratio [9],IC50 (Yellow fever virus) [µg/mL],selectivity ratio [10],IC50 (dengue virus type 4) [µg/mL],selectivity ratio [11],IC50 (Punta Toro virus) [µg/mL],selectivity ratio [14],IC50 (Rift Valley fever virus; [23]) [µg/mL],selectivity ratio [15],"IC50 [16, 24] [µg/mL]",selectivity ratio [17],IC50 ([16]; vero),other results
O=C1N[C@H]2[C@H](O)[C@H](O)[C@@H](O)[C@H](O)[C@@H]2c2cc3c(cc21)OCO3,0.48,5.9,0.4,6.6,0.67,3.7,0.66,4.3,5.1,4.3,1.7,2.7,–,Activity (Mus musculus [1]): Toxic; Activity [2]: 9.5 days; Activity [3]: 15 days; Activity [4]: 13.6 days; Activity [5]: 80%; Activity [6]: 60%; Activity [7]: inactive; Activity [12]: inactive; Activity [13]: inactive; Activity (Vaccinia virus): inactive; Activity (Mus musculus [18]): 28 days; Activity (Mus musculus [19]): Non-toxic; Activity (Mus musculus [20]): Non-toxic; Activity (Mus musculus [21]): Non-toxic
CC(=O)O[C@@H]1[C@@H](O)[C@@H](O)[C@@H]2NC(=O)c3cc4c(cc3[C@H]2[C@H]1O)OCO4 [LYCORICIDINE MONOACETATE],3.3,3.3,4.8,4.3,1.5,33.3,4.7,2.1,5.5,4.4,–,–,Not Active,–
O=c1[nH]c2c(c3cc4c(cc13)OCO4)C[C@H](O)[C@@H](O)[C@H]2O,–,–,5.7,4.2,8.5,5.9,7.2,3.7,10,5,–,–,Not Active,IC50 ([8]; vero): Not Active
O=C1N[C@H]2[C@H](O)[C@H](O)[C@@H](O)C[C@H]2c2cc3c(c(O)c21)OCO3,0.96,5.1,1.3,3.9,2.5,> 2,2.2,3.6,1.4,3.6,–,–,–,inhibition (INH) [16]: 25%
O=C1N[C@H]2[C@H](O)[C@H](O)[C@@H](O)C[C@H]2c2cc3c(cc21)OCO3,12.7,4.9,9.6,6.6,4.4,5.7,14,4.8,–,–,25,3,–,–
O=C1N[C@H]2[C@H](O)[C@H](O)[C@@H](O)C[C@@H]2c2cc3c(cc21)OCO3,0.039,5.6,0.037,7.5,0.5,5,0.057,5.9,0.25,2,–,–,Not Active,–
O=C1N[C@@H]2C(=C[C@H](O)[C@@H](O)[C@H]2O)c2cc3c(c(O)c21)OCO3 [NARCICLASINE],0.008,4.08,0.006,6.1,0.015,4,0.0074,3.9,–,–,–,–,Not Active,IC50 (Rift Valley fever virus; vero): Not Active
O[C@H]1[C@H]2c3cc4c(cc3CN3CCC(=C[C@@H]1O)[C@H]23)OCO4 [LYCORINE],0.33,8.2,0.28,7.3,0.24,10.4,0.5,4.6,0.93,5.4,–,–,Not Active,–
O=C1N[C@@H]2C(=C[C@H](O)[C@@H](O)[C@H]2O)c2cc3c(cc21)OCO3,0.056,4.9,0.053,5.6,0.059,4.2,0.042,6.3,0.15,5.5,0.058,4.5,–,–
CO[C@@H]1C=C[C@@]23c4cc5c(cc4C(O)O[C@H]2CN(C)[C@H]3C1)OCO5 (some centres undefined) [PRETAZETTINE],0.6,3.8,0.5,5.6,–,–,0.61,3.7,2.9,3.5,0.82,3,–,–
COc1cc2c(cc1O)[C@@H]1[C@H](O)[C@@H](O)C=C3CCN(C2)[C@H]31 [PSEUDOLYCORINE],0.28,5,0.35,3.7,0.39,2.6,0.6,3.9,0.63,6,–,–,Not Active,–
O=c1[nH]c2c(c3cc4c(c(O)c13)OCO4)C[C@H](O)[C@@H](O)[C@H]2O [ISONARCICLASINE],0.72,2.1,0.22,4.1,0.27,18.5,0.28,5.1,3.3,7.6,–,–,Not Active,–
